Reference: patent publication US6492416B1, “4,5-diaryl-3(2H)-furanone derivatives as cyclooxygenase-2 inhibitors” (Pacific Corporation, priority 1999, dated 2002)
Converted amounts (≈) assume the structure as drawn.

Assays:
[1] = molecular target: T1, COX-2 (Mus musculus, UniProt Q05769); assay: Evaluation of COX-2 activity: PGE2 formation in aspirin-treated, LPS-stimulated mouse peritoneal macrophages; assay type: cell-based
T1 sequence (Q05769 18-604): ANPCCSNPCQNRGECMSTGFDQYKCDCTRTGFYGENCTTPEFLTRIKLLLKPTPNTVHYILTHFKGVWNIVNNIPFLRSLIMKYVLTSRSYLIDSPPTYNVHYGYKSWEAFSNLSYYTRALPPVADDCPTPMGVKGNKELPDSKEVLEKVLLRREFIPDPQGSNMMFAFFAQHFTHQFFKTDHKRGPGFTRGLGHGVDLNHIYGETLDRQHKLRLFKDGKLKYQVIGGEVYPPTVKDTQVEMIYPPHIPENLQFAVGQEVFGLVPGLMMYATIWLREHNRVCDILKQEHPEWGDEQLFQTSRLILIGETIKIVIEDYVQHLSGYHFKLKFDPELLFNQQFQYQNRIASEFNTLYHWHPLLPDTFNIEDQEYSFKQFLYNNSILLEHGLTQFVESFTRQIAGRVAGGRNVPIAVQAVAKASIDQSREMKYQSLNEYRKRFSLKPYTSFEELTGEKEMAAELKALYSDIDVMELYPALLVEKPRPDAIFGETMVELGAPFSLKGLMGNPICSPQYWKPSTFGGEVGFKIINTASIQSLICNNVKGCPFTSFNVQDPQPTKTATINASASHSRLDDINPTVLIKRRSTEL
Outline: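 PGE2 output, quantified by radio- or enzyme-immunoassay, was read after 10 min exposure of cells to compound with 10 μM arachidonic acid. Cells were mouse peritoneal macrophages, COX-1 knocked out with 500 μM aspirin and COX-2 induced by 10 μg/ml LPS over 16 h. IC50 derived from 4–5 concentrations.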

[2] = molecular target: T2, COX-1 (Mus musculus, UniProt P22437); assay: Evaluation of COX-1 activity: PGE2 formation in mouse peritoneal macrophages without aspirin and LPS treatment; assay type: cell-based
T2 sequence (P22437 27-602): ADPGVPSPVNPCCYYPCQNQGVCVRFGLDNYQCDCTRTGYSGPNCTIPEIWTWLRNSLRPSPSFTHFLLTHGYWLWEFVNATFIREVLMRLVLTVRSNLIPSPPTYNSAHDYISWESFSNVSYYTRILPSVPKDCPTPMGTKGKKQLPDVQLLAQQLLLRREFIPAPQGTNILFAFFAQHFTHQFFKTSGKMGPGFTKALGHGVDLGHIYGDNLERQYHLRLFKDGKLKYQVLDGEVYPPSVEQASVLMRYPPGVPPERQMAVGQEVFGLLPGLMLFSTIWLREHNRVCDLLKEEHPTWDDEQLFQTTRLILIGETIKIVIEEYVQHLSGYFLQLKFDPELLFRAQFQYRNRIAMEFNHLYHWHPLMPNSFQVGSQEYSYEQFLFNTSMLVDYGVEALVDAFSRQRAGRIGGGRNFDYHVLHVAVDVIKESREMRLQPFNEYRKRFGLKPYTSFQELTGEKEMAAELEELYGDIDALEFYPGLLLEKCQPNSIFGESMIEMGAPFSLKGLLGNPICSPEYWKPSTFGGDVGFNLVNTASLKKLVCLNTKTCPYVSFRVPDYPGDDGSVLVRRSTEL
Outline: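 Peritoneal macrophages from C57BL/6 mice, without aspirin or LPS treatment, were plated at 1×10^6 cells/ml and fixed 2 h at 37 °C. Cells were preincubated 10 min, then given 10 μM arachidonic acid plus compound for 10 min; PGE2 was measured by RIA or EIA. IC50 came from 4–5 concentrations.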

Compound | melting point [°C] | IC50, μg/ml COX-2 [1] [µg/mL] | IC50, μg/ml COX-1 [2] [µg/mL]
CCC1(CC)OC(c2ccc(S(C)(=O)=O)cc2)=C(c2ccc(C)cc2)C1=O [Example 245] | 96 to 97 | 0.03 (≈ 0.078 µM) | 3 (≈ 7.8 µM)
CCC1(CC)OC(c2ccc(S(C)(=O)=O)cc2)=C(c2ccc(C(F)(F)F)cc2)C1=O [Example 246] | 121 to 122 | 0.03 (≈ 0.0684 µM) | 3 (≈ 6.84 µM)
CCC1(CC)OC(c2ccc(S(C)(=O)=O)cc2)=C(c2ccc(F)c(Cl)c2)C1=O [Example 254] | 173 to 174 | 0.03 (≈ 0.0709 µM) | 3 (≈ 7.09 µM)
CS(=O)(=O)c1ccc(C2=C(c3cc(F)cc(F)c3)C(=O)C3(CCCC3)O2)cc1 [Example 256] | 127 to 128 | 0.03 (≈ 0.0742 µM) | 5 (≈ 12.4 µM)
CS(=O)(=O)c1ccc(C2=C(c3cccc(Cl)c3)C(=O)C3(CCOCC3)O2)cc1 [Example 263] | 96 to 99 | 0.03 (≈ 0.0716 µM) | 50 (≈ 119 µM)
CC1(C)OC(c2ccc(S(C)(=O)=O)c(F)c2)=C(c2ccccc2)C1=O [Example 273] | 190 to 191 | 0.03 (≈ 0.0832 µM) | 20 (≈ 55.5 µM)
CC1(C)OC(c2ccc(S(C)(=O)=O)c(F)c2)=C(c2cccc(F)c2)C1=O [Example 275] | 182 to 183 | 0.03 (≈ 0.0793 µM) | 200 (≈ 529 µM)
CC1(C)OC(c2ccc(S(C)(=O)=O)c(F)c2)=C(c2ccc(F)cc2F)C1=O [Example 281] | 183 to 184 | 0.1 (≈ 0.252 µM) | 10 (≈ 25.2 µM)
CC1(C)OC(c2ccc(S(C)(=O)=O)c(F)c2)=C(c2cc(F)ccc2F)C1=O [Example 282] | 140 to 141 | 0.03 (≈ 0.0757 µM) | 30 (≈ 75.7 µM)
CC1(C)OC(c2ccc(S(C)(=O)=O)c(F)c2)=C(c2c(F)cccc2F)C1=O [Example 283] | 113 to 115 | 0.7 (≈ 1.77 µM) | 90 (≈ 227 µM)
CC1(C)OC(c2ccc(S(C)(=O)=O)c(F)c2)=C(c2cc(F)cc(F)c2)C1=O [Example 285] | 163 to 164 | 0.03 (≈ 0.0757 µM) | 200 (≈ 505 µM)
CC1(C)OC(c2ccc(S(C)(=O)=O)c(F)c2)=C(c2ccc(C(F)(F)F)cc2)C1=O [Example 286] | 134 to 135 | 0.03 (≈ 0.07 µM) | 5 (≈ 11.7 µM)
C[S+]([O-])c1ccc(C2=C(c3ccccc3)C(=O)C(C)(C)O2)cc1F (stereo not drawn) [Example 291, 2,2-dimethyl-5-{3-fluoro-4-(methylsulfinyl)phenyl}-4-phenyl-3(2H)-furanone] | 149 to 150 | 0.2 (≈ 0.581 µM) | 3 (≈ 8.71 µM)
CC1(C)OC(c2ccc(S(N)(=O)=O)c(F)c2)=C(c2ccccc2Cl)C1=O [Example 304] | 122 to 123 | 0.05 (≈ 0.126 µM) | 50 (≈ 126 µM)
CC1(C)OC(c2ccc(S(N)(=O)=O)c(F)c2)=C(c2cccc(Cl)c2)C1=O [Example 305] | 164 to 165 | 0.003 (≈ 0.00758 µM) | 0.3 (≈ 0.758 µM)
CC1(C)OC(c2ccc(S(C)(=O)=O)cc2F)=C(c2ccccc2)C1=O [Example 321] | 175 to 176 | 0.03 (≈ 0.0832 µM) | 20 (≈ 55.5 µM)
CC1(C)OC(c2ccc(S(C)(=O)=O)cc2F)=C(c2cccc(Cl)c2)C1=O [Example 322] | 139 to 140 | 0.02 (≈ 0.0507 µM) | 3 (≈ 7.6 µM)

Compound | melting point [°C] | IC50, μg/ml COX-2 [1] [µg/mL] | IC50, μg/ml COX-1 [2] [µg/mL]
CC1(C)OC(c2ccc(S(C)(=O)=O)cc2F)=C(c2cccc(F)c2)C1=O [Example 323] | 157 to 158 | 0.03 (≈ 0.0793 µM) | 10 (≈ 26.4 µM)
CC1(C)OC(c2ccc(S(C)(=O)=O)cc2F)=C(c2ccc(F)cc2)C1=O [Example 324] | 150 to 152 | 0.03 (≈ 0.0793 µM) | 3 (≈ 7.93 µM)
CC1(C)OC(c2ccc(S(C)(=O)=O)cc2F)=C(c2cc(F)ccc2F)C1=O [Example 325] | 150 to 151 | 0.05 (≈ 0.126 µM) | 200 (≈ 505 µM)
CC1(C)OC(c2ccc(S(C)(=O)=O)cc2F)=C(c2cc(F)cc(F)c2)C1=O [Example 326] | 118 to 119 | 0.03 (≈ 0.0757 µM) | 20 (≈ 50.5 µM)
CC1(C)OC(c2ccc(S(N)(=O)=O)cc2F)=C(c2ccccc2)C1=O [Example 332, 5-{4-(Aminosulfonyl)-2-fluorophenyl}-2,2-dimethyl-4-phenyl-3(2H)-furanone] | 79 to 81 | 0.03 (≈ 0.083 µM) | 5 (≈ 13.8 µM)
CSc1ccc(C2=C(c3cc(F)cc(F)c3)C(=O)C(C)(C)O2)cc1Br [Example 340] | 115 to 116 | 10 (≈ 23.5 µM) | 30 (≈ 70.5 µM)
CC1(C)OC(c2ccc(S(C)(=O)=O)c(Br)c2)=C(c2ccccc2)C1=O [Example 341, 5-{3-Bromo-4-(methylsulfonyl)phenyl}-2,2-dimethyl-4-phenyl-3(2H)-furanone] | 154 to 155 | 0.3 (≈ 0.712 µM) | 90 (≈ 214 µM)
CC1(C)OC(c2ccc(S(C)(=O)=O)c(Br)c2)=C(c2cc(F)cc(F)c2)C1=O [Example 345] | 194 to 195 | 0.03 (≈ 0.0656 µM) | 50 (≈ 109 µM)
CC1(C)OC(c2ccc(S(N)(=O)=O)c(Br)c2)=C(c2ccccc2)C1=O [Example 351, 5-{4-(Aminosulfonyl)-3-bromophenyl}-2,2-dimethyl-4-phenyl-3(2H)-furanone] | 128 to 132 | 0.9 (≈ 2.13 µM) | 300 (≈ 710 µM)
CC1(C)OC(c2ccc(S(C)(=O)=O)c(Cl)c2)=C(c2cccc(Cl)c2)C1=O [Example 358] | 188 to 189 | 0.02 (≈ 0.0486 µM) | 8 (≈ 19.5 µM)
CC1(C)OC(c2ccc(S(C)(=O)=O)c(Cl)c2)=C(c2ccc(F)cc2)C1=O [Example 360] | 173 to 174 | 0.009 (≈ 0.0228 µM) | 3 (≈ 7.6 µM)
CC1(C)OC(c2ccc(S(C)(=O)=O)c(Cl)c2)=C(c2cc(F)cc(F)c2)C1=O [Example 362] | 200 to 201 | 0.05 (≈ 0.121 µM) | 300 (≈ 727 µM)
CC1(C)OC(c2ccc(S(N)(=O)=O)c(Cl)c2)=C(c2ccccc2)C1=O [Example 367, 5-{4-(Aminosulfonyl)-3-chlorophenyl}-2,2-dimethyl-4-phenyl-3(2H)-furanone] | 193 to 194 | 0.06 (≈ 0.159 µM) | 8 (≈ 21.2 µM)
CC1(C)OC(c2ccc(S(N)(=O)=O)c(Cl)c2)=C(c2cccc(Cl)c2)C1=O [Example 368] | 162 to 163 | 0.02 (≈ 0.0485 µM) | 7 (≈ 17 µM)
CC1(C)OC(c2ccc(S(N)(=O)=O)c(Cl)c2)=C(c2cc(F)cc(F)c2)C1=O [Example 371] | 173 to 174 | 0.02 (≈ 0.0483 µM) | 200 (≈ 483 µM)
CNS(=O)(=O)c1ccc(C2=C(c3ccccc3)C(=O)C(C)(C)O2)cc1Cl [Example 372, 5-{3-Chloro-4-(N-methylaminosulfonyl)phenyl}-2,2-dimethyl-4-phenyl-3(2H)-furanone] | 136 to 137 | 0.09 (≈ 0.23 µM) | 200 (≈ 510 µM)
Cc1cc(C2=C(c3cccc(F)c3)C(=O)C(C)(C)O2)ccc1S(C)(=O)=O [Example 378, 2,2-Dimethyl-4-(3-fluorophenyl)-5-{3-methyl-4-(methylsulfonyl)phenyl}-3(2H)-furanone] | 138 to 139 | 0.03 (≈ 0.0801 µM) | 3 (≈ 8.01 µM)
